The subject of assay [1] is Enterobacter spp. isolates (Enterobacter aerogenes and E. cloacae, n = 102). Briefly: organism not typed. On the procedure: (§1) Comparator antibiotics were supplied by Micromyx, and stock solutions were prepared on the first day of testing using solvents recommended by CLSI (1). Stock solutions of all compounds were made at 40× the final testing concentration and stored at −80° C. prior to testing. Information regarding compound source, catalog and lot number, testing concentrations and drug diluent for the comparators and test agent are detailed below in Table 3.
The test organisms evaluated in this study consisted of clinical isolates from the Micromyx Repository and reference isolates from the American Type Culture Collection (ATCC; Manassas, VA). The clinical isolates were obtained from USA hospitals. Upon initial receipt at Micromyx, the organisms were sub-cultured onto an appropriate agar medium. Following incubation, colonies were harvested from these plates and cell suspensions prepared and frozen at −80° C. with a cryoprotectant. Prior to testing, the isolates were streaked from frozen vials onto Trypticase Soy Agar with 5% sheep blood (Becton Dickenson [BD]; Sparks, MD; Lot Nos. 7173618, 7166759, 7208688, 72144895, 7228505 and Remel Lenexa, KS Lot No. 212574). Plates were incubated at 35° C. overnight.
Mueller Hinton II broth (MHB II; BD; Lot Nos. 6258541 and 7143896) was used for MIC testing of aerobic organisms.
MIC values were determined using a broth microdilution procedure described by CLSI (1, 3). Automated liquid handlers (Multidrop 384, Labsystems, Helsinki, Finland; Biomek 2000 and Biomek FX, Beckman Coulter, Fullerton CA) were used to conduct serial dilutions and liquid transfers.
To prepare the drug mother plates, which would provide the serial drug dilutions for the replicate daughter plates, the wells of columns 2-12 of standard 96-well microdilution plates (Costar 3795) were filled with 150 μl of the designated diluent for each row of drug. The test articles and comparator compounds (300 μl at 40× the highest concentration to be tested) were dispensed into the appropriate wells in column 1. The Biomek 2000 was then used to make 2-fold serial dilutions in the mother plates from column 1 through column 11. The wells of Column 12 contained no drug and served as the organism growth control wells for the assay.
The daughter plates were loaded with 185 μL per well of MHB II using the Multidrop 384. The daughter plates were completed on the Biomek FX instrument which transferred 5 μL of drug solution from each well of a mother plate to the corresponding well of each daughter plate in a single step. A standardized inoculum of each test organism was prepared per CLSI methods (1). The inoculum for each organism was dispensed into sterile reservoirs divided by length (Beckman Coulter), and the Biomek 2000 was used to inoculate the plates. Daughter plates were placed on the Biomek 2000 work surface in reverse orientation so that inoculation took place from low to high drug concentration.
(§2) Plates were stacked 3-4 high, covered with a lid on the top plate, placed in plastic bags, and incubated at 35° C. for 16 to 20 hrs. Following incubation, the microplates were removed from the incubator and viewed from the bottom using a plate viewer. […] The MIC was read and recorded as the lowest concentration of drug that inhibited visible growth of the organism.
(§3) Clinical breakpoints to determine percent resistance within a given organism group were obtained from CLSI (3), with the exception of colistin for K. pneumoniae, Enterobacter spp., and E. coli, which are only available from EUCAST.

Assay [2] has as its system Enterococcus faecium isolates (n = 104). Briefly: microbe, parasite or virus in culture. On the procedure:
as §1
The test organisms evaluated in this study consisted of clinical isolates from the Micromyx Repository and reference isolates from the American Type Culture Collection (ATCC; Manassas, VA). The clinical isolates were obtained from USA hospitals. Upon initial receipt at Micromyx, the organisms were sub-cultured onto an appropriate agar medium. Following incubation, colonies were harvested from these plates and cell suspensions prepared and frozen at −80° C. with a cryoprotectant. […] Plates were incubated at 35° C. overnight.
MIC values were determined using a broth microdilution procedure described by CLSI (1, 3).
The test articles and comparator compounds (300 μl at 40× the highest concentration to be tested) were dispensed into the appropriate wells in column 1. The Biomek 2000 was then used to make 2-fold serial dilutions in the mother plates from column 1 through column 11. The wells of Column 12 contained no drug and served as the organism growth control wells for the assay.
The daughter plates were completed on the Biomek FX instrument which transferred 5 μL of drug solution from each well of a mother plate to the corresponding well of each daughter plate in a single step. A standardized inoculum of each test organism was prepared per CLSI methods (1). The inoculum for each organism was dispensed into sterile reservoirs divided by length (Beckman Coulter), and the Biomek 2000 was used to inoculate the plates. Daughter plates were placed on the Biomek 2000 work surface in reverse orientation so that inoculation took place from low to high drug concentration.
as §2, §3

In assay [3] the test system is P. aeruginosa strains (PAO1 and 2 clinical isolates). Briefly: Determination of bacterial resistance, passage at 0.5×MIC with daily MIC. It counts as cell-based, Pseudomonas aeruginosa. The note with it: three P. aeruginosa strains, exposure at 0.5×MIC, FIG. 20. The source says:
Each antibiotic was compared for their propensity to select for bacterial resistance phenotypes in vitro.

In brackets after ≈: the same amount, converted by molar mass. Read-outs that look alike come from different tables or passages of the source. Peptide text beside a SMILES is read from it. Some results are limits rather than exact numbers.

Turning to `CC(C)[C@H](NC(=O)[C@H](Cc1c[nH]c2ccccc12)NC(=O)[C@H](CCCNC(=N)N)NC(=O)[C@H](CCCNC(=N)N)NC(=O)[C@@H](NC(=O)[C@@H](NC(=O)[C@H](CCCNC(=N)N)NC(=O)[C@@H](NC(=O)[C@@H](NC(=O)[C@H](CCCNC(=N)N)NC(=O)[C@H](CCCNC(=N)N)NC(=O)[C@H](Cc1c[nH]c2ccccc12)NC(=O)[C@@H](NC(=O)[C@H](CCCNC(=N)N)NC(=O)[C@H](CCCNC(=N)N)NC(=O)[C@@H](NC(=O)[C@H](CCCNC(=N)N)NC(=O)[C@H](CCCNC(=N)N)NC(=O)[C@@H](NC(=O)[C@H](Cc1c[nH]c2ccccc12)NC(=O)[C@H](CCCNC(=N)N)NC(=O)[C@@H](N)CCCNC(=N)N)C(C)C)C(C)C)C(C)C)C(C)C)C(C)C)C(C)C)C(C)C)C(=O)N[C@@H](CCCNC(=N)N)C(=O)N[C@@H](CCCNC(=N)N)C(N)=O` [SEQ ID NO: 1] (H-RRWVRRVRRVWRRVVRVVRRWVRR-NH2), the “Mode (MIC)” value in assay [1] stood at 16 µg/mL. In assay [2] (Enterococcus faecium (n = 104)), the MIC50 was 1 µg/mL (≈ 0.294 µM), the MIC90 came to 2 µg/mL (≈ 0.588 µM) and the “Mode (MIC)” value came to 1 µg/mL. Further, in assay [2] (isolates (n = 104)), the MIC50 was found to be 0.5 µg/mL (≈ 0.147 µM), the MIC90 was 1 µg/mL (≈ 0.294 µM) and the MIC range lay in the range of 0.25 to 2 µg/mL.
On to Colistin [reference compound], for which, in assay [1] (Enterobacter spp. (n = 102)), the MIC50 is 0.12 µg/mL, the MIC90 worked out at 0.25 µg/mL and the “Mode (MIC)” value amounted to 0.12 µg/mL. Moreover, in assay [1] (Enterobacter spp. (n = 102), CLSI breakpoints, colistin EUCAST), the “% R (percent of isolates resistant)” value amounted to 5.8%. In assay [3], the “time to development of resistance (fold MIC >10)” value was no more than 13 days.

The values above are taken from US20240115654A1, “INTRAVENOUS ADMINISTRATION OF ENGINEERED ANTIMICROBIAL AMPHIPHILIC PEPTIDES” (priority 2021, published 2024).
